Test results reported in patent publication US8143287B2, “Thrombopoietin mimetics” (Stategics, Inc., priority 2006, dated 2012).

What was measured:
[1] = Solubility in water; assay type: physicochemical; conditions: parent compound without salt formation or use of specialized excipients
Method: A red solution of Compound 3f, 1 M HCl (0.75 mL, 0.75 mmol) and ethanol (1.5 mL) was cooled to 0 deg C. under nitrogen. A solution of 0.060 g of sodium nitrite in 1 mL of water was prepared separately and 0.25 mL (0.22 mmol of sodium nitrite) was added dropwise to the solution containing compound 3f with formation of a dark red-yellow color. The diazotization was monitored using TLC with 75% ethyl acetate-hexanes. Compound 1b (0.042 g, 0.21 mmol) was added after 30 min followed by sodium bicarbonate (0.086 g, 1.0 mmol) and additional ethanol (0.3 mL). The mixture was allowed to warm to 20 deg C., treated with additional sodium bicarbonate (0.073 g, 0.87 mmol) to adjust the pH to 7-8, and allowed to stir for 12 h. The mixture was diluted with ethyl acetate (100 mL) and 0.1 M HCl (5 mL). The aqueous layer was separated and extracted with 20 mL of ethyl acetate. The combined organics were washed with saturated sodium chloride (2×20 mL), and dried over sodium sulfate. The solvent was removed under reduced pressure and the residue purified by silica gel chromatography (40% ethyl acetate-hexanes) to afford Example 3 (0.0256 g, 29% yield over 2 steps). Electrospray MS [M]− 447.2.

[2] = test system: CD34+ CD38− human bone marrow cells; conditions: cited from earlier work

| Compound | solubility [1] | expansion of multipotent progenitors ([2]; following a 14-day incubation) | enhancement of clonogenic growth ([2]; in response to KL+FL+IL-3+IL-6+EPO) |
| --- | --- | --- | --- |
| CC1=NN(c2ccc(C)c(C)c2)C(=O)/C1=N\Nc1cccc(C2CCCC(C(=O)O)C2)c1O (stereo not drawn) [Example 3, 3-(3′-{2-[1-(3,4-dimethylphenyl)-3-methyl-5-oxo-4,5-dihydro-1H-pyrazol-4-ylidene]hydrazino}-2′-hydroxy-phenyl)cyclohexane-1-carboxylic Acid] | 140 µM |  |  |
| Thrombopoietin [TPO] |  | 40 fold | ≤ 80% |
